ChEMBL document CHEMBL4002573, “New insights into the SAR and drug combination synergy of 2-(quinolin-4-yloxy)acetamides against Mycobacterium tuberculosis” (Eur J Med Chem, 2017)
Values after ≈ are worked out from the molar mass of the structure shown.

What was measured:
[1] = tested on: Mycobacterium tuberculosis; assay: Bactericidal activity against Mycobacterium tuberculosis H37Rv infected in mouse RAW264.7 cells assessed as bacterial colony formation at 5 uM after 5 days (reference value: 4.1 to 4.73 log10CU); format: functional
[2] = Kinetic solubility in water at pH 5.8; format: physicochemical; settings: read-out: Kinetic_solubility
[3] = Cytotoxicity against human HaCaT cells assessed as viability at 10 uM after 72 hrs by MTT assay relative to control; format: cell-based; settings: read-out: Activity
[4] = tested on: Mycobacterium tuberculosis; assay: microbe, parasite or virus in culture; settings: H37Rv, 168 h
Description: Antimycobacterial activity against Mycobacterium tuberculosis H37Rv after 7 days by resazurin reduction microplate assay

[5] = Cytotoxicity against human HepG2 cells assessed as viability at 10 uM after 72 hrs by MTT assay relative to control; format: cell-based; settings: read-out: Activity
[6] = Kinetic solubility in PBS at pH 7.4; format: physicochemical; settings: read-out: Kinetic_solubility
[7] = tested on: Mycobacterium tuberculosis; assay: microbe, parasite or virus in culture; settings: PE-003, 168 h
Description: Antimycobacterial activity against Mycobacterium tuberculosis PE-003 clinical isolate after 7 days by resazurin reduction microplate assay

[8] = Thermodynamic solubility of the compound in acetate buffer at pH 4 after 24 hrs by HPLC method; format: physicochemical; settings: read-out: Therm_solubility
[9] = tested on: Mycobacterium tuberculosis; assay: microbe, parasite or virus in culture; settings: CDCT-4 (1105/09), 168 h
Description: Antimycobacterial activity against Mycobacterium tuberculosis CDCT-4 (1105/09) clinical isolate after 7 days by resazurin reduction microplate assay

[10] = Cytotoxicity against mouse N9 cells assessed as viability at 10 uM after 72 hrs by MTT assay relative to control; format: cell-based; settings: read-out: Activity
[11] = Cytotoxicity against mouse RAW264.7 cells assessed as viability at 10 uM after 72 hrs by MTT assay relative to control; format: cell-based; settings: read-out: Activity
[12] = Intrinsic clearance in human liver S9 fraction at 2 uM by HPLC-MS/MS analysis; format: ADME, tissue-based
[13] = Half life in human liver S9 fraction at 2 uM by HPLC-MS/MS analysis; format: ADME, tissue-based
[14] = Thermodynamic solubility of the compound in 0.1N HCl at pH 1.5 after 24 hrs by HPLC method; format: physicochemical; settings: read-out: Therm_solubility
[15] = Cytotoxicity against African green monkey Vero cells assessed as viability at 10 uM after 72 hrs by MTT assay relative to control; format: cell-based; settings: chlorocebus sabaeus, read-out: Activity
[16] = Permeability of the compound at 1 uM […] by PAMPA; format: physicochemical; settings: read-out: permeability
[17] = tested on: Mycobacterium tuberculosis; format: functional; settings: H37Rv, 168 h
[18] = tested on: Mycobacterium tuberculosis; format: functional; settings: H37Rv, 168 h; remark: listed apart in the source
[19] = tested on: Mycobacterium tuberculosis; format: functional; settings: H37Rv, 168 h; remark: listed apart in the source
[20] = tested on: Mycobacterium tuberculosis; format: functional; settings: H37Rv, 168 h; remark: listed apart in the source
[21] = tested on: Mycobacterium tuberculosis; format: functional; settings: H37Rv, 168 h; remark: listed apart in the source
[22] = tested on: Mycobacterium tuberculosis; format: functional; settings: H37Rv, 168 h; remark: listed apart in the source
[23] = target: Cytochrome P450 2C9 (Homo sapiens, UniProt P11712); assay: Inhibition of CYP2C9 in human liver microsomes using tolbutamide as substrate by HPLC-MS/MS method; format: ADME
[24] = tested on: Mycobacterium tuberculosis; assay: Potency index, ratio of isoniazid MIC to test compound MIC for Mycobacterium tuberculosis H37Rv; format: functional
[25] = target: Cytochrome P450 2D6 (Homo sapiens, UniProt P10635); assay: Inhibition of CYP2D6 in human liver microsomes using dextromethorphan as substrate by HPLC-MS/MS method; format: ADME
[26] = tested on: Mycobacterium tuberculosis; format: functional, H37Rv
[27] = target: Cytochrome P450 3A4 (Homo sapiens, UniProt P08684); assay: Inhibition of CYP3A4 in human liver microsomes using testosterone as substrate by HPLC-MS/MS method; format: ADME
[28] = target: Cytochrome P450 2E1 (Homo sapiens, UniProt P05181); assay: Inhibition of CYP2E1 in human liver microsomes using chlorzoxazone as substrate by HPLC-MS/MS method; format: ADME
[29] = target: T1, Cytochrome P450 1A2 (Homo sapiens, UniProt P05177); assay: Inhibition of CYP1A2 in human liver microsomes using phenacetin as substrate by HPLC-MS/MS method; format: ADME
T1 sequence (P05177 whole entry): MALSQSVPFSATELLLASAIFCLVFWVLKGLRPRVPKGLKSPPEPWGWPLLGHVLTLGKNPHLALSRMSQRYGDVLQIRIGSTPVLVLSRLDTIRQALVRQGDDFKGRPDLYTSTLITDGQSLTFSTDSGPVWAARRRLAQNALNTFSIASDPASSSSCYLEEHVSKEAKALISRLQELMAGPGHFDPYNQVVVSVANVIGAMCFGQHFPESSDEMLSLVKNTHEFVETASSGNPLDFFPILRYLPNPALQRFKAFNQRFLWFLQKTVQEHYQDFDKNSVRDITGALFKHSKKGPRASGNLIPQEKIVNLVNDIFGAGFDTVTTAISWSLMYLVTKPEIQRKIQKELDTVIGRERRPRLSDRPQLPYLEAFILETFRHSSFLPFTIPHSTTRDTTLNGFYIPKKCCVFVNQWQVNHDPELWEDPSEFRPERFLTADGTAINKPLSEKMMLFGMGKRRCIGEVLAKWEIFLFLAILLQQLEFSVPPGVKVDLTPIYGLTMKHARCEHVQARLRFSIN

[30] = target: Cytochrome P450 2C19 (Homo sapiens, UniProt P33261); assay: Inhibition of CYP2C19 in human liver microsomes using S-(+)-mephenytoin as substrate by HPLC-MS/MS method; format: ADME
[31] = tested on: Mycobacterium tuberculosis; assay: Potency index, ratio of moxifloxacin MIC to test compound MIC for Mycobacterium tuberculosis PE-003 clinical isolate; format: functional

Chain of Cytochrome P450 2D6 (P10635 whole entry): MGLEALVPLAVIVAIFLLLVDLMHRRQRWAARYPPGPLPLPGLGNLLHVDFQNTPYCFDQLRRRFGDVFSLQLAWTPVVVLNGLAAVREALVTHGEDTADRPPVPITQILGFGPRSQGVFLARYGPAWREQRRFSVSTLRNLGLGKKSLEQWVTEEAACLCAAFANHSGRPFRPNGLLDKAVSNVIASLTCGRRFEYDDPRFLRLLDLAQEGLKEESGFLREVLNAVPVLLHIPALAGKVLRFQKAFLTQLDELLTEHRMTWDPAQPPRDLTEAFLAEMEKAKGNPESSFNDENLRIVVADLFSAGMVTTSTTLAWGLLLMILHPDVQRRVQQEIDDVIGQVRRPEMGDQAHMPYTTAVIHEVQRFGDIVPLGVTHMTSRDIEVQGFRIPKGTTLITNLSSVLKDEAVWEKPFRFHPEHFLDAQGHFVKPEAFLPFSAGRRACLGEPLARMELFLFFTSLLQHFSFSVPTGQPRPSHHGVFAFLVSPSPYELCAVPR
Chain of Cytochrome P450 3A4 (P08684 whole entry): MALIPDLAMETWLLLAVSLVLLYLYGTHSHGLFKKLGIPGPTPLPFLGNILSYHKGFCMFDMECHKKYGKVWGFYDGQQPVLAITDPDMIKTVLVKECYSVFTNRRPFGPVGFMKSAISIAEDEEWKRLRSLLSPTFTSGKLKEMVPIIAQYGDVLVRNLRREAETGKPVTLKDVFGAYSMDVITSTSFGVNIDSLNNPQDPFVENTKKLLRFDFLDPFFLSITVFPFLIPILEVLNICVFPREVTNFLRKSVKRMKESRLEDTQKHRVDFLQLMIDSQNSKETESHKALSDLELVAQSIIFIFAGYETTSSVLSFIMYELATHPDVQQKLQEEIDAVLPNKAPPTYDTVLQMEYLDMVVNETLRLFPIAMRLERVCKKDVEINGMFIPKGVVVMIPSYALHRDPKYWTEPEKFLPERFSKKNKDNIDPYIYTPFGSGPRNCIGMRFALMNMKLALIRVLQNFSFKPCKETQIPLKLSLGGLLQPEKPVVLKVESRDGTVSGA
Chain of Cytochrome P450 2C19 (P33261 whole entry): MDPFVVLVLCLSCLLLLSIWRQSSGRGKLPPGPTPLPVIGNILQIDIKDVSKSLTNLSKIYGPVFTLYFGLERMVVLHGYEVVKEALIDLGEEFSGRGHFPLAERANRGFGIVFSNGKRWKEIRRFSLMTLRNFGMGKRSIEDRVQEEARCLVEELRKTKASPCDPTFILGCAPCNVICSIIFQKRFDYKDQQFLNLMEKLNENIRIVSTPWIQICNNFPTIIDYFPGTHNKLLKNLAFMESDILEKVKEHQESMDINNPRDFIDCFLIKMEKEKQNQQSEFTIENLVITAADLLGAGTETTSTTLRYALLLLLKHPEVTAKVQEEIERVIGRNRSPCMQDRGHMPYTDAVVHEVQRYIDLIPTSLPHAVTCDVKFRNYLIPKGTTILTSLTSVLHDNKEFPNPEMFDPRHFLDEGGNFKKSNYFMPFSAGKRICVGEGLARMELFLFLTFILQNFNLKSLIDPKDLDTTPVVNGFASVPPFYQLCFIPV
Chain of Cytochrome P450 2C9 (P11712 whole entry): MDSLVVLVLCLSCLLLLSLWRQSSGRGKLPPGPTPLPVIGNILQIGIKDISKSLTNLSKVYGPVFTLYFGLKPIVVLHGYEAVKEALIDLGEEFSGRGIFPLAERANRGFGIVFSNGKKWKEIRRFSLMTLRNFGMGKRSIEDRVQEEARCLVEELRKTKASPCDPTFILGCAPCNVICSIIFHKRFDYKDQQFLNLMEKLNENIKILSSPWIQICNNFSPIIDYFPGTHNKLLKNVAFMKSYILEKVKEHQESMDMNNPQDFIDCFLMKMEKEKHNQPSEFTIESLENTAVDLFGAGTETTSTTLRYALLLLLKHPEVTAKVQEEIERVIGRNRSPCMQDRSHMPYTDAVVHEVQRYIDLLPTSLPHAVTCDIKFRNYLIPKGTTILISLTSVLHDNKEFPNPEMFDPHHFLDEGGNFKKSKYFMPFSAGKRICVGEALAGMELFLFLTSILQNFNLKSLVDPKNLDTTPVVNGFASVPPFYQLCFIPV
Chain of Cytochrome P450 2E1 (P05181 whole entry): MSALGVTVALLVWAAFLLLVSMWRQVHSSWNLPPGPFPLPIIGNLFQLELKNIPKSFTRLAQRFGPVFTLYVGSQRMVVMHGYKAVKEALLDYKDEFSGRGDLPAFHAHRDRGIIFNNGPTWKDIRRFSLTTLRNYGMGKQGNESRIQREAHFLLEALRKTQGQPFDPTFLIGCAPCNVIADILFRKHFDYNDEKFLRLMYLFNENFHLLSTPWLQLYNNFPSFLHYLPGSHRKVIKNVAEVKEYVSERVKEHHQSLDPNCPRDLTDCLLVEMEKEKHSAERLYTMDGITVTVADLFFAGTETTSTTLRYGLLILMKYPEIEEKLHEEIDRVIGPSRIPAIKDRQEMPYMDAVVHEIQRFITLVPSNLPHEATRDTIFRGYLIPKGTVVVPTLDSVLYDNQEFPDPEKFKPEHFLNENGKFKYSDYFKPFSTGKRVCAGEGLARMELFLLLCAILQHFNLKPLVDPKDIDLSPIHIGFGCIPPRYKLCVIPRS

| Structure (SMILES) | Activity [1] [log10CFU] | solubility kinetic [2] [µM] | viability at 72 h, 10 µM [3] [%] | MIC [4] [µM] | viability at 72 h, 10 µM [5] [%] | solubility kinetic [6] [µM] | MIC [7] [nM] | solubility thermodynamic at 24 h [8] [µM] | MIC [9] [µM] | viability at 72 h, 10 µM [10] [%] | viability at 72 h, 10 µM [11] [%] | CLhep predicted at 2 µM [12] [mL/min/kg] | half-life at 2 µM [13] [min] | solubility thermodynamic at 24 h [14] [µM] | viability at 72 h, 10 µM [15] [%] | Papp at 1 µM [16] [×10⁻⁶ cm/s] | MIC [17] [ng/mL] | MIC [18] [ng/mL] | MIC [19] [ng/mL] | MIC [20] [ng/mL] | further results |
| --- | --- | --- | --- | --- | --- | --- | --- | --- | --- | --- | --- | --- | --- | --- | --- | --- | --- | --- | --- | --- | --- |
| CCCCc1ccc(NC(=O)COc2cc(C)nc3ccc(OC)cc23)cc1 | 3.05 | 2.2 (≈ 0.833 µg/mL) | 105 | 0.1 (≈ 0.0378 µg/mL) | 78 | 2.3 (≈ 0.87 µg/mL) | 8 (≈ 0.00303 µg/mL) | 50 (≈ 18.9 µg/mL) | < 0.05 | 107 | 91 | 16.3 | 13.7 | 240 (≈ 90.8 µg/mL) | 90 | – | – | – | – | – | – |
| COc1ccc2nc(C)cc(OCC(=O)Nc3ccc(C)cc3)c2c1 | 3.38 | 17 (≈ 5.72 µg/mL) | 100 | 0.12 (≈ 0.0404 µg/mL) | 80 | 17.9 (≈ 6.02 µg/mL) | 40 (≈ 0.0135 µg/mL) | 2100 (≈ 706 µg/mL) | 0.04 (≈ 0.0135 µg/mL) | 106 | 92 | 13.5 | 25.4 | 1200 (≈ 404 µg/mL) | 95 | 11.4 | – | – | – | – | – |
| CCCc1ccc(NC(=O)COc2cc(C)nc3ccc(OC)cc23)cc1 | 2.76 | 3.9 (≈ 1.42 µg/mL) | 86 | 0.005 to 0.05 (≈ 0.00182 to 0.0182 µg/mL) | 64 | 2.4 (≈ 0.875 µg/mL) | 5 (≈ 0.00182 µg/mL) | 90 (≈ 32.8 µg/mL) | < 0.05 | 106 | 83 | 12.7 | 30.2 | 260 (≈ 94.8 µg/mL) | 87 | 1.3 | 5 (≈ 0.0137 µM) | 2.5 (≈ 0.00686 µM) | 5 (≈ 0.0137 µM) | 2.5 (≈ 0.00686 µM) | MIC [21]: 0.02 µg/mL (≈ 0.0549 µM); MIC [22]: 2.5 ng/mL (≈ 0.00686 µM) |
| CCCCCc1ccc(NC(=O)COc2cc(C)nc3ccc(OC)cc23)cc1 | 3.23 | 2.6 (≈ 1.02 µg/mL) | 105 | 0.005 to 0.01 (≈ 0.00196 to 0.00392 µg/mL) | 83 | 4.7 (≈ 1.84 µg/mL) | 1 (≈ 0.000392 µg/mL) | 20 (≈ 7.85 µg/mL) | < 0.05 | 110 | 86 | 14.8 | 19.4 | 30 (≈ 11.8 µg/mL) | 97 | 1.7 | 5 (≈ 0.0127 µM) | 1 (≈ 0.00255 µM) | 10 (≈ 0.0255 µM) | 10 (≈ 0.0255 µM) | IC50 [23]: > 30 µM; Ratio [24]: 292; IC50 [25]: > 30 µM; Ratio [26]: 2; IC50 [27]: > 30 µM; IC50 [28]: > 30 µM; IC50 [29]: > 30 µM; IC50 [30]: > 30 µM; MIC [21]: 0.02 µg/mL (≈ 0.051 µM); Ratio [31]: 100; MIC [22]: 2.5 ng/mL (≈ 0.00637 µM) |
| COc1ccc2nc(C)cc(OCC(=O)Nc3ccc(C)c(C)c3)c2c1 | 3.35 | 10.4 (≈ 3.64 µg/mL) | 94 | 0.11 (≈ 0.0385 µg/mL) | 71 | 10.7 (≈ 3.75 µg/mL) | 40 (≈ 0.014 µg/mL) | 410 (≈ 144 µg/mL) | 0.11 (≈ 0.0385 µg/mL) | 105 | 88 | 16.2 | 14.2 | 80 (≈ 28 µg/mL) | 85 | 5.9 | – | – | – | – | – |
| COc1ccc2nc(C)cc(OCC(=O)Nc3ccc4c(c3)CCC4)c2c1 | 3.54 | 2.8 (≈ 1.01 µg/mL) | 99 | 0.05 (≈ 0.0181 µg/mL) | 95 | 2.8 (≈ 1.01 µg/mL) | 5 (≈ 0.00181 µg/mL) | 120 (≈ 43.5 µg/mL) | < 0.05 | 111 | 88 | 16.9 | 11.7 | 240 (≈ 87 µg/mL) | 97 | 13.1 | – | – | – | – | – |
